Consider two compounds from ChEMBL document CHEMBL1148255, “Facile synthesis of fused 1,2,4-triazolo[1,5-c]pyrimidine derivatives as human adenosine A3 receptor ligands” (Bioorg Med Chem Lett, 2004).

The target in this experiment is Adenosine receptor A2a (Homo sapiens, UniProt P29274). As to the kind of experiment: biochemical.

A value given as a limit tells only on which side of the number the result lay.

Sequence of Adenosine receptor A2a (P29274 whole entry): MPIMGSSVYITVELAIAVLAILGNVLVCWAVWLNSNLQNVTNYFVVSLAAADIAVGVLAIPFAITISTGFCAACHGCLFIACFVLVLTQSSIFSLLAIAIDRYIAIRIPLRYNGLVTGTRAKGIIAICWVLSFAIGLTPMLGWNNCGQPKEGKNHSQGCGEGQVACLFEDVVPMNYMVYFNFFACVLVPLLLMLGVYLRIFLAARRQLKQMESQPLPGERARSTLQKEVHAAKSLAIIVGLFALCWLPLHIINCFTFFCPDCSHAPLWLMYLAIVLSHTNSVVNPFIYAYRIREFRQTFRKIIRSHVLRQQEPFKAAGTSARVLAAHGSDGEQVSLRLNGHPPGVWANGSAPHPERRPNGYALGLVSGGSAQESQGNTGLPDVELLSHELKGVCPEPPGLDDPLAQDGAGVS

`CCCCc1nc2[nH]cnc2c2nc(-c3ccc(C(F)(F)F)cc3)nn12` gave an IC50 above 10000 nM. With `CCCCc1nc2n[nH]cc2c2nc(-c3ccc(OC)cc3)nn12` the figure was […].
